Experimental data: publication PMC9763021, “Comprehensive Assessment of Biomolecular Interactions of Morpholine-Based Mixed Ligand Cu(II) and Zn(II) Complexes of 2,2′-Bipyridine as Potential Anticancer and SARS-CoV-2 Agents: A Synergistic Experimental and Structure-Based Virtual Screening” (Bioinorganic Chemistry and Applications, 2022)

Columns and labels:
[1] = Nitric oxide scavenging assay; assay type: biochemical; conditions: for % Inhibition nitric oxide: 546 nm
Experimental: All samples were evaluated for their scavenging ability with the help of UV-visible spectrophotometer at different concentrations of 40, 80, 120, 160, 200, and 240 μM [6, 28]. While performing the antioxidant properties for the DPPH, hydroxyl, superoxide, and nitric oxide radical scavenging, the absorbance at 517, 230, 590, and 546 nm, respectively, was closely observed. In addition, the observed IC50 values of all samples were compared with ascorbic acid.
The diffusible nitric oxide free radical is a crucial chemical mediator, which assists in overcoming diverse chronological human diseases. The NO free radical scavenging potential for all test samples was also carried out at 546 nm. It monitored the alterations in electronic absorption intensity of the nitric oxide radical inhibition outcome concerning the sample concentrations. When the test sample concentration rises, the nitric oxide free inhibition effectiveness also increases. The measured % of nitric oxide radical scavenging capability for all samples at 240 μM was obtained in the subsequent order (ascorbic acid) 72.73 > (1a) 65.47 > (2a) 58.43 > (HL) 51.62.

Candida albicans = test: Agar disc diffusion, strain I; assay type: cell-based; set-up: (inhibition %): concentration or dose not given beside the values; conditions: for diameter of the clear zone inhibition: control = 6 mm
Experimental: (§1) In-vitro antimicrobial properties were evaluated for all samples by the agar disc diffusion method towards different fungal and bacterial strains. Additionally, the reported inhibition zone values were comparatively analyzed with the standard antifungal drugs ketoconazole and amphotericin B as well as the standard antibiotic medications streptomycin and amikacin.
(§2) The current research has a curious focus on the in vitro antimicrobial properties of biological systems because these studies are crucial for developing effective antibacterial and antifungal medications. […] It can also be spelled out based on the chelation theory proposed by Overtone and Tweedy. Chelation theory points out that the partial exchanging of the positive charge of the metal center with donor moieties, and overlap of the ligand orbitals will reduce the greater degree of the metal ion's polarity, which ultimately rises the delocalization of π and d electrons over the full chelated ring system. By raising the size of the metal ion due to the retarding of polarization, chelation may also enhance the complexes' lipophilic characteristics, which further stimulate the lipid membrane permeability and break down the bacteria' enzymes responsible for cell wall formation, therefore slowing down the regular cell processes. By preventing the production of cell walls/proteins/DNA, including by obstructing folate metabolism and the cytoplasmic membrane, antimicrobial drugs frequently either fully eliminate microbes or only prevent their cell growth. Additionally, the samples' mode of action may be employed in disrupting the cell's respiration process by forming an H-bond during the morpholine-fused iminic group coordinated with the active metal center of its components, inhibiting proliferation of the cell. […] The difference in the antimicrobial efficacy of some of the compounds towards various microorganisms influences on the impermeability of the cells of the germs or the diversity of ribosomes of the microbes. The % of the inhibition of all substances is estimated from (45) (Table 9).
(§3) (A, B, C, D, and E are represented as gram negative bacteria species Escherichia coli, Salmonella enteric serovar typhi, Salmonella enteric serovar typhi, Pseudomonas aeruginosa, and Shigella flexneri, respectively. F & G are denoted as gram positive bacteria species Staphylococcus aureus and Bacillus cereus. H, I, and J are represented as fungal strains Aspergillus niger, Candida albicans, and Mucor indicus. Standard drugs for bacterial strains: Amikacin & Streptomycin Standard drugs for fungal strains: Ketoconazole and Amphotericin B. [Control (DMSO) = 6 mm].(44) Inhibition %=T–C/T×100, where T and C are represented as the diameter of microbial growth of the sample plates and the control plate (6 mm), respectively. Error limits ±2.5–5.0% (P ≤ 0.05).

CT-DNA = test: DNA cleavage by gel electrophoresis in H2O2 environment; assay type: biochemical, calf thymus; conditions: DNA + H2O2, Tris-HCl pH 7.4, agarose gel
Experimental: The characteristics were examined of all substances along with DNA containing H2O2 and Tris-HCl buffer solution (pH: 7.4). The tank solution's gel layer was lifted out after the experiment was finished and put in front of a UV transilluminator. Additionally, each band lane was scrutinized with control (DNA + H2O2).
Using the gel electrophoresis method, the DNA nuclease properties for all samples were assessed under the H2O2 environment. The examined DNA nuclease efficacy for all complexes (1a-2a) was contrasted with free ligand (HL) and CT-DNA alone. The raw data for electrophoretic gels and blots were also enclosed in the electronic supplementary file (Figure S15). In Figure 1, no substantial nuclease activity can be seen in the control (lane 1; DNA + H2O2) even after a lot of time has passed and the free ligand (HL) (lane: 2) was monitored as immobile in an H2O2 environment. […] Furthermore, ROS include O2^•−, H2O2, OH^•, ROOH, ROO^•, HOCl, and ^1O2 (singlet oxygen) and ozone (O3), which play essential roles in living systems. Consequently, it has commonly been acknowledged that ROS plays a dual physiological role in controlling a variety of illnesses as well as cellular homeostasis (self-regulating processes such as thermoregulation, blood glucose regulation, calcium/potassium homeostasis, and osmoregulation). […] Additionally, it is widely known that NADPH oxidase generates reactive oxygen species as a portion of its antibacterial effect on phagocytic cells. Nevertheless, these types of enzymes seem to be present in a variety of other cells as well and may have significant signalling pathway functions. When noncarcinogenic toxicity events occur, ROS has the ability to alter cell function as well as affect the genes of cancer at several levels. OH^• can attack DNA, proteins, and lipids due to its high reactivity among ROS. The hydroxyl radical is a key participant in free radical-mediated hazardous reactions because of its great reactivity. The free radicals are also essential for the redox regulation of many cellular signalling pathways and proper cellular functions. […]

Shigella flexneri = test: Agar disc diffusion, strain E; assay type: cell-based; set-up: (inhibition %): concentration or dose not given beside the values; conditions: for diameter of the clear zone inhibition: control = 6 mm
Experimental: as §1, §2, §3

SMILES	% Inhibition nitric oxide ([1]; 40 µM) [%]	% Inhibition nitric oxide ([1]; 80 µM) [%]	% Inhibition nitric oxide ([1]; 120 µM) [%]	% Inhibition nitric oxide ([1]; 160 µM) [%]	% Inhibition nitric oxide ([1]; 200 µM) [%]	% Inhibition nitric oxide ([1]; 240 µM) [%]	(inhibition %) (Candida albicans) [%]	diameter of the clear zone inhibition (Candida albicans) [mm]	DNA cleavage (nuclease activity) (CT-DNA)	(inhibition %) (Shigella flexneri) [%]	diameter of the clear zone inhibition (Shigella flexneri) [mm]	IC50 [1] [µM]
Oc1ccccc1N=Cc1ccc(N2CCOCC2)cc1 [(HL), 2-(4-morpholinobenzylideneamino)phenol]	11.42	18.26	24.28	33.21	40.53	51.62	40	10	immobile	57	14	
[Cu+2].[O-]c1ccccc1N=Cc1ccc(N2CCOCC2)cc1.[O-]c1ccccc1N=Cc1ccc(N2CCOCC2)cc1.c1ccc(-c2ccccn2)nc1 [(1a), [Cu(L)2(bpy)]]	17.07	24.95	35.06	42.14	51.35	65.47	50	12	complete DNA cleavage	45	11	200
[O-]c1ccccc1N=Cc1ccc(N2CCOCC2)cc1.[O-]c1ccccc1N=Cc1ccc(N2CCOCC2)cc1.[Zn+2].c1ccc(-c2ccccn2)nc1 [(2a), [Zn(L)2(bpy)]]	14.37	21.59	28.87	37.69	44.73	58.43	54	13	partially cleaves DNA	45	11	
